The values that follow come from patent US10273222B2 (CELGENE QUANTICEL RESEARCH, INC., priority 2013, dated 2019).

As a reminder, the IC50 is the concentration that inhibits the measured activity by half.

Assay type in all cases: biochemical
In one assay the target is JMJD2A (Homo sapiens (Human), UniProt O75164). Put plainly: JMJD2A in vitro enzyme inhibition assay (TR-FRET). Background: In TR-FRET formats the signal depends on donor and acceptor labels being close together.
Another assay concerns the target Jarid1A (Homo sapiens (Human), UniProt P29375). Put plainly: Jarid1A in vitro enzyme inhibition assay (TR-FRET). The source says:
The enzymatic assay of Jarid1A activity is based upon Time Resolved-Fluorescence Resonance Energy Transfer (TR-FRET) detection.

The target in a further assay is JMJD2C (Homo sapiens (Human), UniProt Q9H3R0). In words: JMJD2C in vitro enzyme inhibition assay (TR-FRET).
JMJD2C, sequence (Q9H3R0 2-372): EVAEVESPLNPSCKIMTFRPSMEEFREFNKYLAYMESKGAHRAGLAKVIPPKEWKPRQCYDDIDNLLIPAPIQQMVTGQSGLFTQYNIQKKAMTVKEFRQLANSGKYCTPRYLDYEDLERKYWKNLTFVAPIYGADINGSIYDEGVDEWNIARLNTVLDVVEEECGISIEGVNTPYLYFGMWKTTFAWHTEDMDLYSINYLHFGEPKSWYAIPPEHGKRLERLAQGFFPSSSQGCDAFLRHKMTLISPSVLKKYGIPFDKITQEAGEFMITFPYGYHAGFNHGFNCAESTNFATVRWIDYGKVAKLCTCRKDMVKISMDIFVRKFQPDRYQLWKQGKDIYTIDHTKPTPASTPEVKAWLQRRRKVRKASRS
In another assay the target is Jarid1B (Homo sapiens (Human), UniProt Q9UGL1). Put plainly: Jarid1B in vitro enzyme inhibition assay (TR-FRET).
Jarid1B, sequence (Q9UGL1 2-751): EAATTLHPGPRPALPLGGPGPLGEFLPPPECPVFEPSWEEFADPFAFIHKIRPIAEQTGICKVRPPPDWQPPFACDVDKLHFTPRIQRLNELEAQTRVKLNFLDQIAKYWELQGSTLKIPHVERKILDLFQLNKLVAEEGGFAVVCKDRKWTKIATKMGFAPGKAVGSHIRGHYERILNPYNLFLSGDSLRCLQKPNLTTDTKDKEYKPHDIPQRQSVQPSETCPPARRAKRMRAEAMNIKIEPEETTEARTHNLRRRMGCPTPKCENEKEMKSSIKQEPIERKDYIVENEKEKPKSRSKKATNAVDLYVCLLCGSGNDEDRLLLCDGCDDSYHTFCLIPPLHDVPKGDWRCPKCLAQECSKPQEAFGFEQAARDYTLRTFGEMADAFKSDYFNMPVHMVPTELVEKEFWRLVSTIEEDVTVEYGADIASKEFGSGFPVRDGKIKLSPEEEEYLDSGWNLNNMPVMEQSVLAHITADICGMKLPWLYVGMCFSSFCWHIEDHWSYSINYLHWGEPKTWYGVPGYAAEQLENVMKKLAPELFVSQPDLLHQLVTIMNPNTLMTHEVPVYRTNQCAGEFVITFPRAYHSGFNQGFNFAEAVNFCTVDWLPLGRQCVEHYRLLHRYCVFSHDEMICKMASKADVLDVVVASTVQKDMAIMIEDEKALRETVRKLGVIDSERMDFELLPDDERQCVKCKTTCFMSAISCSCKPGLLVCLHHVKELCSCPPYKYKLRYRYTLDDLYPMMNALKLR
The target in a further assay is FBXL10 (Homo sapiens (Human), UniProt Q8NHM5). Put plainly: FBXL10 in vitro enzyme inhibition assay (AlphaScreen). In short, it runs like this:
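AlphaScreen read-out of H3K36me1 product, detected with anti-H3K36me1 antibody plus streptavidin donor and Protein A acceptor beads (final 10 μg/ml) in 50 mM HEPES pH 7.3, 10 mM NaCl, 0.005% Brij35, 5 mM EDTA, 2 mg/ml BSA. Beads incubated 2 h to overnight at room temperature; IC50 derived from AlphaScreen signal.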
For orientation: Alpha assays give light when donor and acceptor beads are brought close together.

FBXL10, sequence (Q8NHM5 1-650): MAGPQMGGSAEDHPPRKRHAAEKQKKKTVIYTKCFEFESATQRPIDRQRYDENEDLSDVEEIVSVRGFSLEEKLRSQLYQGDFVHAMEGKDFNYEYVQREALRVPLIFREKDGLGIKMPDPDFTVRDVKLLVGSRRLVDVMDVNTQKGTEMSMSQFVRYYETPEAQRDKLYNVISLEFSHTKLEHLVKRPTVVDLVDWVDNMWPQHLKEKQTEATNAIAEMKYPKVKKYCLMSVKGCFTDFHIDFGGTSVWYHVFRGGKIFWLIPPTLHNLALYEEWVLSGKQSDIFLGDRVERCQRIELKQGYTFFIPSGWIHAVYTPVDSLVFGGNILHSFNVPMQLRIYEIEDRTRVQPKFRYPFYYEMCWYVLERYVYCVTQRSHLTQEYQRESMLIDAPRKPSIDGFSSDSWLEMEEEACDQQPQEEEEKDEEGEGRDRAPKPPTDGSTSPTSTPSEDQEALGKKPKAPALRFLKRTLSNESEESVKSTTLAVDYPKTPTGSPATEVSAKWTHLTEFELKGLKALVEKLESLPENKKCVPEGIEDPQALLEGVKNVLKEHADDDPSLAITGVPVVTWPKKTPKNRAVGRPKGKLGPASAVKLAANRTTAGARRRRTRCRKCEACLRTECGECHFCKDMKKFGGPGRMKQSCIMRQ
JMJD2A, sequence (O75164 1-350): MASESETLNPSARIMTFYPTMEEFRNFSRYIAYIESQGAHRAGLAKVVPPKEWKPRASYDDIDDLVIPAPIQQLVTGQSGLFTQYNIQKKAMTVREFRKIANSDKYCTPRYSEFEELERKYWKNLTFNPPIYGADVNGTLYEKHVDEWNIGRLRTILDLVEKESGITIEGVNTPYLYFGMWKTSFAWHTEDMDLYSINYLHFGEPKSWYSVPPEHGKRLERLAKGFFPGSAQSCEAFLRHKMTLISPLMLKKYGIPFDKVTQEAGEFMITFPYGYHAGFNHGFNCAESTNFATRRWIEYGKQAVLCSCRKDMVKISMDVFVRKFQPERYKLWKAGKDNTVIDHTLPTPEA
Jarid1A, sequence (P29375 1-1090): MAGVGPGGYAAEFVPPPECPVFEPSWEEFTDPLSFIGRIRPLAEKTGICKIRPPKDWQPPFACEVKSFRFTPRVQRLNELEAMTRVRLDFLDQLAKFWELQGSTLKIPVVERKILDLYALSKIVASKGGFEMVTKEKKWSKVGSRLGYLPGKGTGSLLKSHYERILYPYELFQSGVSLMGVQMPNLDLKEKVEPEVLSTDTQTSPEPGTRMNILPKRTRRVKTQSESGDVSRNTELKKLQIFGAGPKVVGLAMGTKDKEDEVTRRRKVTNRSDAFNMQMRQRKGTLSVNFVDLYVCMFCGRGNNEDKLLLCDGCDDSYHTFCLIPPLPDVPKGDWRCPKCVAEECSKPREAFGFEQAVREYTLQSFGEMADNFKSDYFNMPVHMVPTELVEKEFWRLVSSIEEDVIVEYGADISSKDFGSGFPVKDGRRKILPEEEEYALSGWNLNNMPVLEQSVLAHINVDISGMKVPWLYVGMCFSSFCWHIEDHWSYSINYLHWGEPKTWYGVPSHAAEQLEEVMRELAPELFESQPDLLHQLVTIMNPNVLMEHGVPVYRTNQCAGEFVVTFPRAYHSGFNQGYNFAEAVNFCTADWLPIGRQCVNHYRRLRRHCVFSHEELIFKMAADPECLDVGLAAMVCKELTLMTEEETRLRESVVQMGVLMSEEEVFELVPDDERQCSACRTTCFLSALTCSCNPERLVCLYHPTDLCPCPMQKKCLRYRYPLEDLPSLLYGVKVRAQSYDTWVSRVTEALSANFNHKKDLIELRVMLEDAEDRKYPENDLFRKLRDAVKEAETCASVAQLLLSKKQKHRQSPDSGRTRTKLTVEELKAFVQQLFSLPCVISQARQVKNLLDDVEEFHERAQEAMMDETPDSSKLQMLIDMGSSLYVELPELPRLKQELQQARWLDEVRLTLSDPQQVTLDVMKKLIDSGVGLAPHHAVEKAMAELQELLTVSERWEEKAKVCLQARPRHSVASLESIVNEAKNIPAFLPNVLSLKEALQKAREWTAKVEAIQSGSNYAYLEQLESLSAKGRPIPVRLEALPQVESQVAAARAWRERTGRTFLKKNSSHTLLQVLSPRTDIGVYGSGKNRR

Take `O=C(O)c1ccnc(-c2cn(CCN3CCCC3=O)cn2)c1` [Example 60, 2-{1-[2-(2-oxopyrrolidin-1-yl)ethyl]-1H-imidazol-4-yl}pyridine-4-carboxylic acid]: the IC50 was not above 0.1 µM against JMJD2A; not above 0.1 µM on Jarid1A; 0.1 to 1 µM against JMJD2C; not above 0.1 µM against Jarid1B; not above 0.1 µM against FBXL10.

In the case of `O=C(O)c1ccnc(-c2cn(CCc3cccc4ccccc34)cn2)c1` [Example 112, 2-[1-(2-naphthalen-1-ylethyl)imidazol-4-yl]pyridine-4-carboxylic acid], the IC50 is 0.1 to 1 µM against JMJD2A; not above 0.1 µM on Jarid1A; 0.1 to 1 µM against JMJD2C; not above 0.1 µM against Jarid1B; not above 0.1 µM on FBXL10.

As to `CCN(CCn1cnc(-c2cc(C(=O)O)ccn2)c1)Cc1ccc(F)cc1` [Example 70, 2-[1-[2-[ethyl-[(4-fluorophenyl)methyl]amino]ethyl]imidazol-4-yl]pyridine-4-carboxylic acid], the IC50 against JMJD2A, on Jarid1A, against JMJD2C, against Jarid1B and on FBXL10 was not above 0.1 µM each time.

For the compound `c1ccc2c(c1)CCCC2Cn1cnc(-c2cc(-c3nn[nH]n3)ccn2)c1` (centres unmarked) [Example 143, 2-[1-(1,2,3,4-tetrahydronaphthalen-1-ylmethyl)imidazol-4-yl]-4-(2H-tetrazol-5-yl)pyridine], the IC50 is more than 10 µM on JMJD2A, 1 to 10 µM at JMJD2C, 0.1 to 1 µM against Jarid1B and not above 0.1 µM against FBXL10.

On to `Cc1cccc(CN(C)CCn2cnc(-c3cc(C(=O)O)ccn3)c2)c1` [Example 66, 2-[1-[2-[methyl-[(3-methylphenyl)methyl]amino]ethyl]imidazol-4-yl]pyridine-4-carboxylic acid], for which the IC50 on JMJD2A, against Jarid1A, against JMJD2C, on Jarid1B and against FBXL10 was not above 0.1 µM in each case.

For the compound `c1ccc2c(CCn3cnc(-c4cc(-c5nn[nH]n5)ccn4)c3)cccc2c1` [Example 142, 2-[1-(2-naphthalen-1-ylethyl)imidazol-4-yl]-4-(2H-tetrazol-5-yl)pyridine], the IC50 at JMJD2A was more than 10 µM; on JMJD2C, 1 to 10 µM; against Jarid1B, not above 0.1 µM; against FBXL10, not above 0.1 µM.

On to `COCCCn1cnc(-c2cc(C(=O)O)ccn2)c1-c1ccc(Cl)c(F)c1` [Example 36, 2-[5-(4-chloro-3-fluorophenyl)-1-(3-methoxypropyl)-1H-imidazol-4-yl]pyridine-4-carboxylic acid], for which the IC50 was not above 0.1 µM against Jarid1A, 1 to 10 µM on JMJD2C, not above 0.1 µM against Jarid1B and not above 0.1 µM on FBXL10.

For `CN(CCn1cnc(-c2cc(C(=O)O)ccn2)c1)Cc1ccccc1` [Example 57, 2-(1-{2-[benzyl(methyl)amino]ethyl}-1H-imidazol-4-yl)pyridine-4-carboxylic acid], the IC50 against Jarid1A, against JMJD2C, against Jarid1B and at FBXL10 was not above 0.1 µM in each case.

With `CCc1ccccc1CNCCn1cnc(-c2cc(C(=O)O)ccn2)c1` [Example 80, 2-[1-[2-[(2-ethylphenyl)methylamino]ethyl]imidazol-4-yl]pyridine-4-carboxylic acid], the IC50 against Jarid1A, at JMJD2C, at Jarid1B and against FBXL10 was not above 0.1 µM in each case.

As for `O=C(O)c1ccnc(-c2cn(CCNCc3ccccc3Cl)cn2)c1` [Example 78, 2-[1-[2-[(2-chlorophenyl)methylamino]ethyl]imidazol-4-yl]pyridine-4-carboxylic acid], the IC50 against Jarid1A, at JMJD2C, on Jarid1B and on FBXL10 was not above 0.1 µM each time.

Take `Cn1cnc(-c2cc(C(=O)O)ccn2)c1-c1ccc(OC(F)(F)F)cc1` [Example 13, 2-{1-methyl-5-[4-(trifluoromethoxy)phenyl]-1H-imidazol-4-yl}pyridine-4-carboxylic acid]: the IC50 lay within 0.1 to 1 µM at Jarid1A, 1 to 10 µM against JMJD2C, 0.1 to 1 µM at Jarid1B and 0.1 to 1 µM against FBXL10.

`Cn1cnc(-c2cc(C(=O)O)ccn2)c1-c1ccc(Cl)cc1Cl` [Example 33, 2-[5-(2,4-dichlorophenyl)-1-methyl-1H-imidazol-4-yl]pyridine-4-carboxylic acid]: the IC50 against Jarid1A is not above 0.1 µM; on JMJD2C, 0.1 to 1 µM; against Jarid1B it was not above 0.1 µM; against FBXL10, not above 0.1 µM.

`COc1cc(-c2c(-c3cc(C(=O)O)ccn3)ncn2C)ccc1Cl` [Example 30, 2-[5-(4-chloro-3-methoxyphenyl)-1-methyl-1H-imidazol-4-yl]pyridine-4-carboxylic acid]: the IC50 on Jarid1A was not above 0.1 µM; at JMJD2C, 0.1 to 1 µM; at Jarid1B, not above 0.1 µM; against FBXL10, not above 0.1 µM.

Regarding `CCOc1ccc(-c2c(-c3cc(C(=O)O)ccn3)ncn2C)cc1` [Example 14, 2-[5-(4-ethoxyphenyl)-1-methyl-1H-imidazol-4-yl]pyridine-4-carboxylic acid], the IC50 at Jarid1A fell in the range of 0.1 to 1 µM; against JMJD2C, 1 to 10 µM; against Jarid1B, 0.1 to 1 µM; against FBXL10, 0.1 to 1 µM.

`Cn1cnc(-c2cc(C(=O)O)ccn2)c1-c1ccc(Cl)c(C(F)(F)F)c1` [Example 31, 2-{5-[4-chloro-3-(trifluoromethyl)phenyl]-1-methyl-1H-imidazol-4-yl}pyridine-4-carboxylic acid]: the IC50 against Jarid1A is not above 0.1 µM; at JMJD2C, 0.1 to 1 µM; against Jarid1B, not above 0.1 µM; against FBXL10, 0.1 to 1 µM.

With `Cn1cnc(-c2cc(C(=O)O)ccn2)c1-c1ccc(C(F)(F)F)cc1` [Example 6, 2-{1-methyl-5-[4-(trifluoromethyl)phenyl]-1H-imidazol-4-yl}pyridine-4-carboxylic acid], the IC50 was not above 0.1 µM on Jarid1A, 1 to 10 µM at JMJD2C, not above 0.1 µM at Jarid1B and 0.1 to 1 µM against FBXL10.

With `O=C(O)c1ccnc(-c2cn(CCC3CCCCC3)cn2)c1` [Example 114, 2-[1-(2-cyclohexylethyl)imidazol-4-yl]pyridine-4-carboxylic acid], the half-inhibitory concentration (IC50) against Jarid1A is not above 0.1 µM; against JMJD2C it was 0.1 to 1 µM; against Jarid1B, not above 0.1 µM; against FBXL10, not above 0.1 µM.

For `O=C(O)c1ccnc(-c2cn(CC3CCCO3)cn2)c1` (centres unmarked) [Example 51, 2-[1-(tetrahydrofuran-2-ylmethyl)-1H-imidazol-4-yl]pyridine-4-carboxylic acid], the IC50 on Jarid1A is not above 0.1 µM; at JMJD2C, 0.1 to 1 µM; on Jarid1B it was not above 0.1 µM; at FBXL10 it was not above 0.1 µM.

In the case of `Cc1ccc(-c2c(-c3cc(C(=O)O)ccn3)ncn2C)cc1` [Example 4, 2-[1-methyl-5-(4-methylphenyl)-1H-imidazol-4-yl]pyridine-4-carboxylic acid], the IC50 on Jarid1A is not above 0.1 µM; against JMJD2C it was 1 to 10 µM; on Jarid1B, not above 0.1 µM; at FBXL10 it was 0.1 to 1 µM.

Regarding `O=C(O)c1ccnc(-c2cn(CCNCc3ccc(F)cc3)cn2)c1` [Example 74, 2-[1-[2-[(4-fluorophenyl)methylamino]ethyl]imidazol-4-yl]pyridine-4-carboxylic acid], the IC50 at Jarid1A, against JMJD2C, at Jarid1B and at FBXL10 was not above 0.1 µM in each case.

Consider `CN(C)CCn1cnc(-c2cc(C(=O)O)ccn2)c1-c1ccc(Cl)c(F)c1` [Example 39, 2-{5-(4-chloro-3-fluorophenyl)-1-[2-(dimethylamino)ethyl]-1H-imidazol-4-yl}pyridine-4-carboxylic acid], for which the IC50 at Jarid1A, at JMJD2C, against Jarid1B and against FBXL10 was not above 0.1 µM throughout.

For the compound `Cn1cnc(-c2cc(C(=O)O)ccn2)c1-c1ccc(Cl)cc1C(F)(F)F` [Example 27, 2-{5-[4-chloro-2-(trifluoromethyl)phenyl]-1-methyl-1H-imidazol-4-yl}pyridine-4-carboxylic acid], the IC50 was not above 0.1 µM against Jarid1A, 1 to 10 µM at JMJD2C, not above 0.1 µM at Jarid1B and not above 0.1 µM on FBXL10.

As for `CN1CCC(n2cnc(-c3cc(C(=O)O)ccn3)c2)CC1` [Example 49, 2-[1-(1-methylpiperidin-4-yl)-1H-imidazol-4-yl]pyridine-4-carboxylic acid], the IC50 against Jarid1A was not above 0.1 µM; on JMJD2C, not above 0.1 µM; against Jarid1B, not above 0.1 µM; against FBXL10, 0.1 to 1 µM.

Consider `Cn1cnc(-c2cc(C(=O)O)ccn2)c1-c1cccc(F)c1` [Example 24, 2-[5-(3-fluorophenyl)-1-methyl-1H-imidazol-4-yl]pyridine-4-carboxylic acid], for which the IC50 at Jarid1A is not above 0.1 µM; on JMJD2C, 0.1 to 1 µM; against Jarid1B, not above 0.1 µM; against FBXL10, not above 0.1 µM.

As to `O=C(O)c1ccnc(-c2cn(CCN(Cc3ccc(Cl)c(Cl)c3)C3CC3)cn2)c1` [Example 86, 2-[1-[2-[cyclopropyl-[(3,4-dichlorophenyl)methyl]amino]ethyl]imidazol-4-yl]pyridine-4-carboxylic acid], the IC50 is not above 0.1 µM against Jarid1A, 0.1 to 1 µM against JMJD2C, not above 0.1 µM against Jarid1B and not above 0.1 µM against FBXL10.
